Experimental findings from patent US12209096B2, “Compounds and compositions for inducing chondrogenesis” (NOVARTIS AG, priority 2017, dated 2025) are described below.

One test concerns C3H10T1/2 cell line. Kind of test: alkaline phosphatase assay in C3H10T1/2. In kind it is cell-based. The note with it: Mus musculus, C3H 10T1/2, 144 h, alkaline phosphatase assay in C3H10T1/2, 6 days; for Emax: read-out: (D) % Efficacy; for IC50: read-out: (D) IC50. On the procedure: To initiate differentiation in C3H10T1/2, Clone 8 (ATCC cat #CCL-226), 4,000 cells were plated/well in 384 Perkin Elmer CellCarrier Ultra plate in DMEM/High glucose (HyClone cat #SH30022.01) containing 10% FBS and 1× Antibiotic/Antimycotic (HyClone cat #SV30079.01). After 24 hours the test compound was then added to each well at the indicated dose. The cultures were grown at 37° C. for 6 days.
To detect the presence of hypertrophic cells, C3H10T1/2 were fixed with 4% paraformaldehyde and Hoeschst dye for 20 minutes, rinsed in PBS, then stained with Fast Blue RR Salt with Naphthol AS-MX Phosphate Alkaline Solution.
The ALP staining was imaged by fluoresecent microscopy, using the 561 wavelength, and/or quantified by high content imagining with the ImageXpress Micro Confocal (Molecular Devices, Sunnyvale, CA). Data analyses were performed with the customized multiwavelength cell-scoring application looking at the number of ALP positive cells per well.

The test system of another test is NHACs. Kind of test: calcium flux assay. As to conditions: Homo sapiens; for Emax: read-out: (A) % Efficacy. In kind it is cell-based, human. An outline of the steps:
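Normal human articular chondrocytes plated at 2000 cells/well and loaded 24 h later with Calcium 5 dye in HBSS/HEPES with 5 mM probenecid for 1 h at room temperature. Test compound added at indicated dose; fluorescence (ex 470–495/em 515–575 nm) recorded on FLIPR before and after addition.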

For orientation: IC50 means the concentration that inhibits the measured activity by half. In general, EC50 refers to the midpoint of the concentration-response curve. As for `Cc1cc([C@H]2[C@H](C(=O)Nc3ccc(Cl)c(Cl)c3)[C@H]3O[C@@H]2C[C@@H]3O)ccn1` [Example 77d, (1R,2S,3R,4R,6S)-N-(3,4-dichlorophenyl)-6-hydroxy-3-(2-methylpyridin-4-yl)-7-oxabicyclo[2.2.1]heptane-2-carboxamide], in the test with C3H10T1/2 cell line, the Emax turned out to be 54% and the IC50 is more than 20 µM. In the test with NHACs, the EC50 came to 33 µM and the Emax is 92%.

Take `Cc1ccc([C@H]2[C@H]3O[C@H](C[C@@H]3O)[C@@H]2C(=O)Nc2ccc(Cl)c(Cl)c2)cn1` [Example 138, (1R,2R,3S,4R,5S)—N-(3,4-dichlorophenyl)-5-hydroxy-3-(6-methylpyridin-3-yl)-7-oxabicyclo[2.2.1]heptane-2-carboxamide]: in the test with C3H10T1/2 cell line, the Emax was 24% and the IC50 is more than 20 µM. For the same molecule, in the test on NHACs, the EC50 was more than 50 µM and the Emax was determined as 0%.

For the molecule `Cc1cc([C@H]2[C@H]3O[C@H]([C@@H]4C[C@@H]43)[C@@H]2C(=O)Nc2ccc(Cl)c(Cl)c2)ccn1` [Example 117, (1S,2S,4R,5R,6R,7S)—N-(3,4-dichlorophenyl)-7-(2-methylpyridin-4-yl)-8-oxatricyclo[3.2.1.0^2,4]octane-6-carboxamide], in the test with C3H10T1/2 cell line, the Emax was determined as 59% and the IC50 was found to be 7 µM. Besides, in the test with NHACs, the EC50 was found to be 3 µM and the Emax stood at 177%.

As to `COc1ccc(NC(=O)[C@H]2[C@@H]3O[C@@H]([C@H]4C[C@H]43)[C@@H]2c2ccc(C)nc2)cn1` [Example 123, (1S,2S,4R,5R,6R,7S)—N-(6-methoxypyridin-3-yl)-7-(6-methylpyridin-3-yl)-8-oxatricyclo[3.2.1.0^2,4]octane-6-carboxamide], in the test on C3H10T1/2 cell line, the Emax came out at 48% and the IC50 is more than 20 µM. For the same molecule, in the test with NHACs, the EC50 was more than 50 µM and the Emax came out at 0%.

Regarding `Cc1cc([C@H]2[C@H]3O[C@H](C[C@H]3NCCO)[C@@H]2C(=O)Nc2ccc(Cl)c(Cl)c2)ccn1` [Example 168, (1R,2R,3S,4R,5R)—N-(3,4-dichlorophenyl)-5-((2-hydroxyethyl)amino)-3-(2-methylpyridin-4-yl)-7-oxabicyclo[2.2.1]heptane-2-carboxamide], in the test on C3H10T1/2 cell line, the Emax came to 0% and the IC50 is more than 20 µM. Also, in the test with NHACs, the EC50 turned out to be 0.32 µM and the Emax worked out at 114%.

`Cc1cc([C@H]2[C@H]3O[C@H](C[C@@H]3O)[C@@H]2C(=O)NC2CCN(S(C)(=O)=O)CC2)ccn1` [Example 79, (1R,2R,3S,4R,5S)-5-hydroxy-3-(2-methylpyridin-4-yl)-N-(1-(methylsulfonyl)piperidin-4-yl)-7-oxabicyclo[2.2.1]heptane-2-carboxamide]: in the test with C3H10T1/2 cell line, the Emax came out at 34% and the IC50 is more than 20 µM. In addition, in the test with NHACs, the EC50 was more than 50 µM and the Emax is 113%.

`Cc1cc([C@H]2[C@H]3O[C@H]([C@@H]4C[C@@H]43)[C@@H]2C(=O)Nc2ncc(C)s2)ccn1` [Example 70, (1S,2S,4R,5R,6R,7S)-7-(2-methylpyridin-4-yl)-N-(5-methylthiazol-2-yl)-8-oxatricyclo[3.2.1.0^2,4]octane-6-carboxamide]: in the test on C3H10T1/2 cell line, the Emax came to 1% and the IC50 is more than 20 µM. Further, in the test on NHACs, the EC50 is more than 50 µM and the Emax came to 25%.

For `Cc1cc([C@@H]2[C@@H]3O[C@@H](C[C@H]3O)[C@H]2C(=O)Nc2ccc(Cl)c(Cl)c2)ccn1` [Example 77c, (1S,2S,3R,4S,5R)-N-(3,4-dichlorophenyl)-5-hydroxy-3-(2-methylpyridin-4-yl)-7-oxabicyclo[2.2.1]heptane-2-carboxamide], in the test on C3H10T1/2 cell line, the Emax stood at 72% and the IC50 is 3.9 µM. In the test with NHACs, the EC50 worked out at 13 µM and the Emax came out at 72%.

In the case of `O=C(Nc1ccc(Cl)c(Cl)c1)[C@H]1[C@@H](c2ccnc(C(F)(F)F)c2)[C@H]2O[C@@H]1C[C@@H]2O` (racemic) [Example 54, rac-(1R,2S,3S,4R,5S)—N-(3,4-dichlorophenyl)-5-hydroxy-3-(2-(trifluoromethyl)pyridin-4-yl)-7-oxabicyclo[2.2.1]heptane-2-carboxamide], in the test on C3H10T1/2 cell line, the Emax is 35% and the IC50 is more than 20 µM. In the test with NHACs, the EC50 is more than 50 µM and the Emax amounted to 22%.

Take `Cc1cc([C@@H]2[C@@H]3O[C@@H](C[C@@H]3O)[C@H]2C(=O)Nc2ccc(Cl)c(Cl)c2)ccn1` [Example 181, (1S,2S,3R,4S,5S)—N-(3,4-dichlorophenyl)-5-hydroxy-3-(2-methylpyridin-4-yl)-7-oxabicyclo[2.2.1]heptane-2-carboxamide]: in the test with C3H10T1/2 cell line, the Emax turned out to be 28% and the IC50 is more than 20 µM. Also, in the test with NHACs, the EC50 stood at 27 µM and the Emax stood at 243%.

Turning to `O=C(Nc1ccc(Cl)c(Cl)c1)[C@@H]1[C@H](c2ccnc(C(F)(F)F)c2)[C@@H]2O[C@H]1C[C@H]2O` (single isomer, unassigned) [Example 54b], in the test on C3H10T1/2 cell line, the Emax turned out to be 46% and the IC50 is more than 20 µM. In the test on NHACs, the EC50 is more than 50 µM and the Emax was 16%.

Turning to `O=C(Nc1ccc(Cl)c(Cl)c1)[C@@H]1[C@H]2O[C@H]([C@@H]3C[C@@H]32)[C@H]1c1cncnc1` (single isomer, unassigned) [Example 126b], in the test with C3H10T1/2 cell line, the Emax was 42% and the IC50 is more than 20 µM. Moreover, in the test with NHACs, the EC50 was determined as 5.6 µM and the Emax is 103%.

In the case of `O=C(Nc1ccc(Cl)c(Cl)c1)[C@@H]1[C@@H](c2cnc(C(F)(F)F)nc2)[C@H]2O[C@@H]1C[C@@H]2O` [Example 154, (1R,2R,3S,4R,5S)—N-(3,4-dichlorophenyl)-5-hydroxy-3-(2-(trifluoromethyl)pyrimidin-5-yl)-7-oxabicyclo[2.2.1]heptane-2-carboxamide], in the test with C3H10T1/2 cell line, the Emax was determined as 75% and the IC50 amounted to 4 µM. Also, in the test with NHACs, the EC50 stood at 26 µM and the Emax was determined as 236%.

For the molecule `Cc1ncc([C@H]2[C@H]3O[C@H](C[C@@H]3O)[C@@H]2C(=O)Nc2ccc(Cl)c(Cl)c2)cn1` [Example 148, (1R,2R,3S,4R,5S)—N-(3,4-dichlorophenyl)-5-hydroxy-3-(2-methylpyrimidin-5-yl)-7-oxabicyclo[2.2.1]heptane-2-carboxamide], in the test with C3H10T1/2 cell line, the Emax worked out at 58% and the IC50 was determined as 18 µM. Besides, in the test on NHACs, the EC50 came out at 7.8 µM and the Emax stood at 51%.

Turning to `O=C(Nc1ccc(Cl)c(Cl)c1)[C@@H]1[C@@H](c2ccnc(C(F)(F)F)c2)[C@H]2O[C@@H]1C[C@@H]2O` (single isomer, unassigned) [Example 145a], in the test on C3H10T1/2 cell line, the Emax came out at 100% and the IC50 came out at 1.2 µM.

With `O=C(Nc1ccc(Cl)c(Cl)c1)[C@H]1[C@H](c2ccnc(C(F)(F)F)c2)[C@@H]2O[C@H]1C[C@H]2O` (single isomer, unassigned) [Example 145b], in the test with C3H10T1/2 cell line, the Emax was determined as 83% and the IC50 came to 11 µM.

With `COc1cc([C@@H]2[C@@H](C(=O)Nc3ccc(Cl)c(Cl)c3)[C@@H]3O[C@H]2C[C@H]3F)ccn1` [Example 104, (1S,2R,3S,4S,6R)—N-(3,4-dichlorophenyl)-6-fluoro-3-(2-methoxypyridin-4-yl)-7-oxabicyclo[2.2.1]heptane-2-carboxamide], in the test on NHACs, the EC50 turned out to be 14 µM and the Emax stood at 96%.

Regarding `Cc1cc([C@H]2[C@H]3O[C@H](C[C@@H]3O)[C@H]2C(=O)Nc2ccc(Cl)c(Cl)c2)ccn1` (racemic) [Example 53, rac-(1R,2S,3S,4R,5S)—N-(3,4-dichlorophenyl)-5-hydroxy-3-(2-methylpyridin-4-yl)-7-oxabicyclo[2.2.1]heptane-2-carboxamide], in the test with NHACs, the EC50 was more than 50 µM and the Emax was determined as 43%.

Take `Cc1ccc([C@@H]2[C@@H](C(=O)Nc3ccc(Cl)c(Cl)c3)[C@@H]3O[C@H]2C[C@H]3F)cn1` [Example 116, (1S,2R,3S,4S,6R)—N-(3,4-dichlorophenyl)-6-fluoro-3-(6-methylpyridin-3-yl)-7-oxabicyclo[2.2.1]heptane-2-carboxamide]: in the test with NHACs, the EC50 stood at 23 µM and the Emax was determined as 58%.

With `Cc1cc([C@H]2[C@H]3O[C@H](C[C@H]3F)[C@@H]2C(=O)Nc2cnc(Cl)c(Cl)c2)ccn1` [Example 98, (1R,2R,3S,4R,5R)—N-(5,6-dichloropyridin-3-yl)-5-fluoro-3-(2-methylpyridin-4-yl)-7-oxabicyclo[2.2.1]heptane-2-carboxamide], in the test with NHACs, the EC50 was 21 µM and the Emax was found to be 404%.

Consider `O=C(Nc1cccc(C(F)(F)F)c1)[C@H]1[C@@H]2O[C@@H]([C@@H](O)[C@H]2O)[C@@H]1c1ccncc1` [Example 159, (1S,2R,3S,4R,5S,6R)-5,6-dihydroxy-3-(pyridin-4-yl)-N-(3-(trifluoromethyl)phenyl)-7-oxabicyclo[2.2.1]heptane-2-carboxamide], for which, in the test with NHACs, the EC50 was more than 50 µM and the Emax worked out at 11%.

As to `Nc1ncc([C@H]2[C@H]3O[C@H]([C@@H]4C[C@@H]43)[C@H]2C(=O)Nc2ccc(Cl)c(Cl)c2)cn1` [Example 39, (1S,2S,4R,5R,6S,7S)-7-(2-aminopyrimidin-5-yl)-N-(3,4-dichlorophenyl)-8-oxatricyclo[3.2.1.0^2,4]octane-6-carboxamide], in the test on NHACs, the EC50 turned out to be 0.53 µM and the Emax stood at 40%.
